Data published in patent publication EP2459560B1, “RING-ANNULATED DIHYDROPYRROLO[2,L-A]ISOQUINOLINES” (Merck Sharp & Dohme B.V., priority 2009, dated 2011).

Biological target: T1, human FSH receptor (Homo sapiens, UniProt P23945)
T1 construct: expressed in transfected cells; host or cells: Chinese Hamster Ovary (CHO) cells, stably transfected; cotransfected with CRE/promoter-firefly luciferase reporter
T1 sequence (P23945 18-695): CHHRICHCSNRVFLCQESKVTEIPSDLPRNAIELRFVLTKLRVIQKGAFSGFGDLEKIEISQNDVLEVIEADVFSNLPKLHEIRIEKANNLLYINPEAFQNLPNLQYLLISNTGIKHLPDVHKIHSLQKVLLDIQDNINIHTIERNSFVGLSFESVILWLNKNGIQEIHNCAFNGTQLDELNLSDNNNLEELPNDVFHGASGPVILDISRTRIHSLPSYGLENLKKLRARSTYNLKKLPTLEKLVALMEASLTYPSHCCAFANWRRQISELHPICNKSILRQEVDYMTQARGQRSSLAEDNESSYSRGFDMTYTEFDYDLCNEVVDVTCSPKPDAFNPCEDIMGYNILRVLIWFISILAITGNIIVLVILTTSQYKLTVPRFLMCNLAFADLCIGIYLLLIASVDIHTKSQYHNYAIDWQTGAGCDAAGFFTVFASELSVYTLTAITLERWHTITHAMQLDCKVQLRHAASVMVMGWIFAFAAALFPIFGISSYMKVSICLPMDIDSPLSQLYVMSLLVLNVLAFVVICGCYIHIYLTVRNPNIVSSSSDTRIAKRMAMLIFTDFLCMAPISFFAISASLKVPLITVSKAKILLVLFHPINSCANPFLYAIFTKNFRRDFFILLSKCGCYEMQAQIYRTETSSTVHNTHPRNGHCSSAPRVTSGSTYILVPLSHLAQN
Test: Agonistic activity at the human FSH receptor expressed in CHO cells (CRE-luciferase reporter)
Format: cell-based
Conditions: CHO cells stably transfected with the human FSH receptor and a CRE/luciferase reporter, 4 hours of incubation, pEC50 is -logEC50; for EC50: read-out: hFSHRago (CHO luc) pEC50 (converted)
Procedure: For the determination a software program such as MathIQ (version 2.0, ID Business Solutions Limited) can be used.
Agonistic activity of compounds at the human FSH receptor expressed in CHO cells
Agonistic activity of the compounds at the human FSH receptor was determined in Chinese Hamster Ovary (CHO) cells stably transfected with the human FSH receptor and cotransfected with a cAMP responsive element (CRE)/promotor directing the expression of a firefly luciferase reporter gene. […] The final concentration of DMSO was 1%. After 4 hours of incubation, plates were allowed to adjust to room temperature for 1 hour. Then, Luclite (PerkinElmer) solution was added to the wells and cells were allowed to lyse for at least 1 hour at room temperature. Subsequently, luciferase activity was measured in a luminescence counter. The signal is expressed as counts per second (cps).

hFSHRago (CHO luc) pEC50 | EC50 [nM] | Molecule
8.51 | – | 9-tert-butyl-3-methoxy-2-pyridin-3-yl-14-(1,3-thiazol-5-yl)-5,6,10,11,12,13-hexahydroazocino[4',3':4,5]pyrrolo[2,1-a]isoquinolin-8(9H)-one [11j]
– | 64.6 | COc1cc2c(cc1-c1cnn(C)c1)-c1c(-c3cccs3)c3c(n1CC2)C(=O)N(C(C)(C)C)CCC3 [4h]
– | 13.8 | COc1cc2c(cc1-c1cnccn1)-c1c(-c3cccs3)c3c(n1CC2)C(=O)N(C(C)(C)C)CCC3 [4i, 9-tert-butyl-2-(pyrazin-2-yl)-3-methoxy-13-(2-thienyl)-5,6,9,10,11,12-hexahydro-8H-azepino[4',3':4,5]pyrrolo[2,1-a]isoquinolin-8-one]
– | 0.316 | COc1cc2c(cc1-c1cccnc1)-c1c(-c3cccs3)c3c(n1CC2)C(=O)N(C(C)(C)C)CCSC3 [9k, 9-tert-butyl-3-methoxy-2-pyridin-3-yl-14-(2-thienyl)-5,6,10,11,13,13a-hexahydro-7aH-[1,4]thiazocino[7',6':4,5]pyrrolo[2,1-a]isoquinolin-8(9H)-one]
– | 5.25 | COc1cc2c(cc1[C@@H](O)[C@H](O)CO)-c1c(-c3cccs3)c3c(n1CC2)C(=O)N(C(C)(C)C)CCCC3 [21i]
